Assay results taken from PubChem BioAssay AID248 (DTP/NCI, 2004).
Values joined by “and” are separate entries in the source; they are usually repeats but may differ in a detail not shown here. Equal entries are not always repeated. Inconclusive results and toxic doses are left out. No stated cut-off is given here; in the data, active means T/C of 150% or more; inactive means T/C below 125%.

System: L1210 leukemia ip in BDF1 mice, survival T/C
Assay: NCI In Vivo Anticancer Drug Screen. Data for tumor model L1210 Leukemia (intraperitoneal) in B6D2F1 (BDF1) mice
Details: endpoint: mean survival time, higher = longer survival
Outline: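 Read-out is survival time, reported as the treated-group measurement over the vehicle-control measurement.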

[1] = dose: 100.0 mg/kg/injection, schedule: Q01DX009 (ip), vehicle: Klucel (hydroxypropylcellulose) (HPC)
[2] = dose: 200.0 mg/kg/injection, schedule: Q01DX009 (ip), vehicle: Klucel (hydroxypropylcellulose) (HPC)
[3] = dose: 400.0 mg/kg/injection, schedule: Q01DX009 (ip), vehicle: Klucel (hydroxypropylcellulose) (HPC)
[4] = dose: 100.0 mg/kg/injection, schedule: Q04DX003 (ip), vehicle: saline
[5] = dose: 200.0 mg/kg/injection, schedule: Q04DX003 (ip), vehicle: saline
[6] = dose: 400.0 mg/kg/injection, schedule: Q04DX003 (ip), vehicle: saline
[7] = dose: 100.0 mg/kg/injection, schedule: Q01DX009 (ip), vehicle: saline with Tween-80
[8] = dose: 200.0 mg/kg/injection, schedule: Q01DX009 (ip), vehicle: saline with Tween-80
[9] = dose: 400.0 mg/kg/injection, schedule: Q01DX009 (ip), vehicle: saline with Tween-80
[10] = dose: 100.0 mg/kg/injection, schedule: Q04DX003 (ip), vehicle: saline with Tween-80
[11] = dose: 200.0 mg/kg/injection, schedule: Q04DX003 (ip), vehicle: saline with Tween-80
[12] = dose: 400.0 mg/kg/injection, schedule: Q04DX003 (ip), vehicle: saline with Tween-80
[13] = dose: 50.0 mg/kg/injection, schedule: Q01DX009 (ip), vehicle: saline
[14] = dose: 100.0 mg/kg/injection, schedule: Q01DX001 (ip), vehicle: Klucel (hydroxypropylcellulose) (HPC)
[15] = dose: 200.0 mg/kg/injection, schedule: Q01DX001 (ip), vehicle: Klucel (hydroxypropylcellulose) (HPC)
[16] = dose: 400.0 mg/kg/injection, schedule: Q01DX001 (ip), vehicle: Klucel (hydroxypropylcellulose) (HPC)
[17] = dose: 100.0 mg/kg/injection, schedule: Q04DX003 (ip), vehicle: Klucel (hydroxypropylcellulose) (HPC)
[18] = dose: 200.0 mg/kg/injection, schedule: Q04DX003 (ip), vehicle: Klucel (hydroxypropylcellulose) (HPC)
[19] = dose: 400.0 mg/kg/injection, schedule: Q04DX003 (ip), vehicle: Klucel (hydroxypropylcellulose) (HPC)
[20] = dose: 100.0 mg/kg/injection, schedule: Q01DX001 (ip), vehicle: saline
[21] = dose: 200.0 mg/kg/injection, schedule: Q01DX001 (ip), vehicle: saline
[22] = dose: 400.0 mg/kg/injection, schedule: Q01DX001 (ip), vehicle: saline

Measured: T/C

Cc1ccc(S(=O)(=O)NCCCOS(=O)(=O)c2ccc(C)cc2)cc1
inactive: [1] 104 % of control | dose: 100.0 mg/kg/injection, schedule: Q04DX003 (ip), vehicle: acetone 97 % of control | [2] 93 % of control | dose: 200.0 mg/kg/injection, schedule: Q04DX003 (ip), vehicle: acetone 95 % of control | [3] 93 % of control | dose: 400.0 mg/kg/injection, schedule: Q04DX003 (ip), vehicle: acetone 94 % of control

COc1ccc2nc3cc(Cl)ccc3c(NCCO)c2c1
inactive: dose: 75.0 mg/kg/injection, schedule: Q01DX001 (ip), vehicle: Klucel (hydroxypropylcellulose) (HPC) 100 % of control | dose: 100.0 mg/kg/injection, schedule: Q01DX001 (ip), vehicle: carboxymethylcellulose (CMC) 100 % of control | [4] 96 % of control | dose: 150.0 mg/kg/injection, schedule: Q01DX001 (ip), vehicle: Klucel (hydroxypropylcellulose) (HPC) 96 % of control | dose: 200.0 mg/kg/injection, schedule: Q01DX001 (ip), vehicle: carboxymethylcellulose (CMC) 100 % of control | [5] 96 % of control | dose: 300.0 mg/kg/injection, schedule: Q01DX001 (ip), vehicle: Klucel (hydroxypropylcellulose) (HPC) 96 % of control | dose: 400.0 mg/kg/injection, schedule: Q01DX001 (ip), vehicle: carboxymethylcellulose (CMC) 108 % of control | [6] 89 % of control

C/C=C\c1ccc(OCCOC(=O)Nc2ccc(Cl)cc2C(F)(F)F)c(OC)c1
inactive: [7] 91 % of control | [8] 96 % of control | [9] 89 % of control

O=C1CC(c2ccccc2)(c2ccccc2)c2ccccc21
inactive: dose: 25.6 mg/kg/injection, schedule: Q04DX002 (ip), vehicle: saline with Tween-80 98 % of control | dose: 64.0 mg/kg/injection, schedule: Q04DX002 (ip), vehicle: saline with Tween-80 102 % of control | dose: 160.0 mg/kg/injection, schedule: Q04DX002 (ip), vehicle: saline with Tween-80 91 % of control | dose: 400.0 mg/kg/injection, schedule: Q04DX002 (ip), vehicle: saline with Tween-80 96 % of control

[CH3][Hg][O]C(C)=O
inactive: dose: 3.0 mg/kg/injection, schedule: Q01DX009 (ip), vehicle: Klucel (hydroxypropylcellulose) (HPC) 86 % of control | dose: 3.12 mg/kg/injection, schedule: Q04DX003 (ip), vehicle: Klucel (hydroxypropylcellulose) (HPC) 104 % of control | dose: 6.0 mg/kg/injection, schedule: Q01DX009 (ip), vehicle: Klucel (hydroxypropylcellulose) (HPC) 91 % of control | dose: 6.25 mg/kg/injection, schedule: Q04DX003 (ip), vehicle: Klucel (hydroxypropylcellulose) (HPC) 96 % of control | dose: 12.5 mg/kg/injection, schedule: Q04DX003 (ip), vehicle: Klucel (hydroxypropylcellulose) (HPC) 96 % of control and 97 % of control

O=C1c2ccccc2-c2ccccc21
inactive: [7] 88 % of control | [10] 102 % of control | [8] 93 % of control | [11] 102 % of control | [9] 88 % of control | [12] 105 % of control

O=c1cc(NCc2ccccc2Cl)[nH]c(=O)[nH]1
inactive: dose: 100.0 mg/kg/injection, schedule: Q01DX001 (ip), vehicle: gum acacia 93 % of control | dose: 200.0 mg/kg/injection, schedule: Q01DX001 (ip), vehicle: gum acacia 95 % of control | dose: 400.0 mg/kg/injection, schedule: Q01DX001 (ip), vehicle: gum acacia 101 % of control

Cc1cc(C)nc(NNc2nc(C)cc(C)n2)n1
inactive: dose: 100.0 mg/kg/injection, schedule: Q01DX001 (ip), vehicle: saline with Tween-80 105 % of control | [10] 92 % of control | dose: 200.0 mg/kg/injection, schedule: Q01DX001 (ip), vehicle: saline with Tween-80 104 % of control | [11] 92 % of control | dose: 400.0 mg/kg/injection, schedule: Q01DX001 (ip), vehicle: saline with Tween-80 100 % of control | [12] 100 % of control

O=C(O)c1ccc(OCCOc2ccccc2)cc1
inactive: dose: 100.0 mg/kg/injection, schedule: Q01DX009 (ip), vehicle: saline sonified 90 % of control | dose: 200.0 mg/kg/injection, schedule: Q01DX009 (ip), vehicle: saline sonified 95 % of control | dose: 200.0 mg/kg/injection, schedule: Q04DX003 (ip), vehicle: saline sonified 100 % of control | dose: 400.0 mg/kg/injection, schedule: Q01DX009 (ip), vehicle: saline sonified 93 % of control | dose: 400.0 mg/kg/injection, schedule: Q04DX003 (ip), vehicle: saline sonified 108 % of control

O=C1NC2(C(=O)O1)C1CC3CC(C1)CC2C3 (configuration not stated)
inactive: dose: 12.5 mg/kg/injection, schedule: Q01DX009 (ip), vehicle: saline 108 % of control | dose: 25.0 mg/kg/injection, schedule: Q01DX009 (ip), vehicle: saline 107 % of control | [13] 105 % of control | dose: 100.0 mg/kg/injection, schedule: Q04DX003 (ip), vehicle: alcohol 100 % of control | dose: 200.0 mg/kg/injection, schedule: Q04DX003 (ip), vehicle: alcohol 90 % of control | dose: 400.0 mg/kg/injection, schedule: Q04DX003 (ip), vehicle: alcohol 100 % of control

Cc1ccc(C(=O)C=Nc2ccc(Br)cc2)cc1
inactive: [14] 104 % of control | [15] 95 % of control | [16] 112 % of control

CCCCC(=O)NCCc1ccc2c([nH]c3ccccc32)c1C
inactive: [4] 96 % of control | [5] 104 % of control | [6] 96 % of control

CCOC(=O)c1ccc(NC(=S)NC(=O)c2cccc3ccccc23)cc1
inactive: dose: 100.0 mg/kg/injection, schedule: Q04DX002 (ip), vehicle: other 91 % of control and 92 % of control | dose: 200.0 mg/kg/injection, schedule: Q04DX002 (ip), vehicle: other 97 % of control and 91 % of control | dose: 400.0 mg/kg/injection, schedule: Q04DX002 (ip), vehicle: other 102 % of control and 91 % of control

COC(=O)NS(=O)(=O)c1ccn(C)c1
inactive: [14] 97 % of control | [17] 100 % of control | [15] 98 % of control | [18] 100 % of control | [16] 104 % of control | [19] 100 % of control

COc1cc(/C=N\N=C\c2ccc(O)c(OC)c2)ccc1O
inactive: [10] 100 % of control | [11] 94 % of control | [12] 93 % of control

Cc1ccc(NC(=O)N(Cc2ccccc2)Cc2ccccc2)c([N+](=O)[O-])c1
inactive: dose: 50.0 mg/kg/injection, schedule: Q01DX009 (ip), vehicle: Klucel (hydroxypropylcellulose) (HPC) 87 % of control | [1] 123 % of control | [17] 95 % of control | [2] 90 % of control | [18] 101 % of control | [19] 99 % of control

CC(=O)Nc1cc2c(cc1CC(=O)O)OCO2
inactive: dose: 50.0 mg/kg/injection, schedule: Q01DX001 (ip), vehicle: saline 101 % of control | [20] 95 % of control | [21] 95 % of control | [22] 101 % of control

Cc1noc(C)c1C=O
inactive: [17] 102 % of control | [18] 95 % of control

NNC(=O)[C@H]1CC[C@H]1C(=O)NN
inactive: [13] 102 % of control | dose: 100.0 mg/kg/injection, schedule: Q01DX009 (ip), vehicle: saline 109 % of control | [4] 103 % of control | dose: 130.0 mg/kg/injection, schedule: Q01DX009 (ip), vehicle: saline 106 % of control | dose: 200.0 mg/kg/injection, schedule: Q01DX009 (ip), vehicle: saline 106 % of control | [5] 104 % of control | dose: 264.0 mg/kg/injection, schedule: Q04DX003 (ip), vehicle: saline 105 % of control and 118 % of control and 91 % of control

O=C(O)C(Cc1ccccc1)Cc1ccccc1
inactive: [20] 97 % of control | [21] 103 % of control | [22] 109 % of control

Cc1cc(C)c(NC(=O)NC(C)C)c(C)c1
inactive: [1] 104 % of control | [17] 98 % of control | [2] 101 % of control | [18] 105 % of control | [3] 91 % of control | [19] 91 % of control

CCCCN(CCCC)CP(=O)(CN(CCCC)CCCC)CN(CCCC)CCCC
inactive: [10] 93 % of control | [11] 96 % of control | [12] 111 % of control
